{"source": "patent US8455442B2", "about": "“Peptides having binding affinity to an antibody which recognizes an epitope on an α1 loop 2 or β2 loop 1 of an adrenoreceptor” (MDC Max-Delbruck-Centrum fur Molekulare Medizin Berlin-Buch, priority 2008, dated 2013)", "key": {"[1]": {"system": "α1 adrenergic receptor", "experiment": "Antagonist block of patient-antibody stimulation of the beating rate of cultured neonatal rat cardiomyocytes", "type": "cell-based", "conditions": "FIG. 1; prazosin given in addition to ICI 118,551; patient immunoglobulins on rat cardiomyocytes", "excerpt": "(§1) Preparation of the immunoglobulin fraction.\n(§2) The buffer was changed five times during dialysis."}, "[2]": {"system": "antibodies from patients with Morbus Alzheimer directed to the α1A Adrenoceptor", "experiment": "Peptide neutralization of the antibody-mediated increase of the beating rate (neonatal rat cardiomyocyte bioassay)", "type": "cell-based, human", "conditions": "FIG. 6; overlapping peptides of the second extracellular loop of the α1A Adrenoceptor co-incubated with patient immunoglobulins (n=5)", "method": "as §1, §2\n(§3) After the dialysis, the IgG fractions feature a concentration of 10-15 mg/ml, a maximum of 10 μg/ml of which are specific receptor antibodies. 50 μl of this IgG solution are pre-incubated with the peptides with the following concentration of peptides: 5 μl of a buffered solution of 100 μg/ml per 50 μl IgG solution. This mixture is pre-incubated at room temperature for 30 minutes and subsequently filled into the cell culture vials, after the former nutrient solution has been removed by pipet. The amount of the medium is 2 ml. The final concentration therefore is of […] for the IgG and 0.5 μg for the peptides. If the molecular weight of the peptide (10 mer) is set with 1 KD and that of the IgG is set with 150 KD, there is an excess of […].\n(§4) For the neutralization experiments, synthetic peptides corresponding to the sequence of the three extracellular loops of the human β2 AR or α1A-AR was added in excess (0.5 μg in 50 μl) to 50 μl of the immunoglobulin fraction. The mixtures were shaken and incubated at room temperature for 1 h. The 100-μl samples were then added to neonatal rat heart muscle cells cultured in 2 ml medium to a final dilution of 1:40. The beating rate was counted for 15 s, about 60 min after the addition of the peptide/immunoglobulin mixture. […]"}, "[3]": {"system": "antibodies from patients with Morbus Alzheimer directed to the β2 Adrenoceptor", "experiment": "Peptide neutralization of the antibody-mediated increase of the beating rate (neonatal rat cardiomyocyte bioassay)", "type": "cell-based, human", "conditions": "FIG. 3; overlapping epitope peptides of loop 1 of the β2-AR co-incubated with patient immunoglobulins (n=6)", "method": "as §1, §2, §3, §4"}}, "data": [{"molecule": "COc1cc2nc(N3CCN(C(=O)c4ccco4)CC3)nc(N)c2cc1OC", "note": "[prazosin]", "values": [{"measurement": "inhibition of cellular activity of contraction", "setting": "[1]", "result": "more effective inhibition"}]}, {"molecule": "APEDET [peptide embedded in the second extracellular loop of the α1A Adrenoceptor]", "values": [{"measurement": "neutralisation of the cellular activity of the immunoglobulins", "setting": "[2]", "result": "neutralises"}]}, {"molecule": "FGNFWCE", "values": [{"measurement": "neutralisation of antibody mediated increase of the beating rate", "setting": "[3]", "result": "neutralisation"}]}]}
